The source of these data is paper PMC8516514 (Clinical Infectious Diseases: An Official Publication of …, 2020).

For series [1] the following is noted: baseline ALT 27–45 IU/mL; cited from earlier work.
Series [2] concerns HBV. The experiment in a line: Change in serum HBV DNA, phase 1b study in patients with chronic HBV infection. Format: in vivo, human.
In series [3] the test system is HBV. Put plainly: Change in serum HBsAg, phase 1b study in patients with chronic HBV infection. Format: in vivo, human.
Series [4] has as its system HBV. Put plainly: Change in serum HBeAg, phase 1b study in patients with chronic HBV infection. Format: in vivo, human.
Series [5] has as its system HBV. Put plainly: Change in serum HBV pgRNA, phase 1b study in patients with chronic HBV infection. Format: in vivo, human.
In series [6] the test system is HBV. Put plainly: Change in serum HBcrAg, phase 1b study in patients with chronic HBV infection. Format: in vivo, human.
Series [7] in a line: Plasma pharmacokinetics of GLS4 in patients with chronic HBV infection. Format: in vivo, human. The following applies: for AUC0–24 / AUC0–t / Cmax / Ctrough / t1/2 / Df (degree of fluctuation): mean (CV).
Series [8] in a line: Safety and tolerability in patients with chronic HBV infection. Format: in vivo, human. The following applies: for effect of silibinin and glutathione treatment on ALT flares: subjects with ALT flares, decline in ALT level.
Series [9] is described as follows: Phase Ia pharmacokinetics of GLS4 in healthy subjects. Format: in vivo, human. The following applies: for mean steady-state Cmin: unpublished observations.
Series [10] in a line: Phase Ia tolerability in healthy subjects. Format: in vivo, human. The following applies: 9 days, unpublished observations.
Series [11] concerns HBV.
The subject of a further series is HBV in HepG2.2.15 cell. The following applies: cited from earlier work.
For series [12] the following is noted: preclinical study in dogs; cited from earlier work.
Series [13] deals with HBV. The following applies: after NVR 3–778 treatment; cited from earlier work.
Series [14] concerns HBV. The following applies: cited from earlier work.
Setting [15] is: cohort A: GLS4 120 mg/day + ritonavir 100 mg/day.
[16] abbreviates: cohort B: GLS4 240 mg/day + ritonavir 100 mg/day.
Where [17] appears, read: cohort A (GLS4 120 mg/day + ritonavir 100 mg/day), Day 1 (24 Hours).
The mark [18] stands for this setting: cohort A (GLS4 120 mg/day + ritonavir 100 mg/day), Day 28 (24 Hours).
Where [19] appears, read: cohort A (GLS4 120 mg/day + ritonavir 100 mg/day), Day 28 (120 Hours).
The mark [20] stands for this setting: cohort B (GLS4 240 mg/day + ritonavir 100 mg/day), Day 1 (24 Hours).
Where [21] appears, read: cohort B (GLS4 240 mg/day + ritonavir 100 mg/day), Day 28 (24 Hours).
[22] abbreviates: cohort B (GLS4 240 mg/day + ritonavir 100 mg/day), Day 28 (120 Hours).
The mark [23] stands for this setting: cohort A: GLS4 120 mg/day + ritonavir 100 mg/day, n=8.
The mark [24] stands for this setting: cohort B: GLS4 240 mg/day + ritonavir 100 mg/day, n=8.
The mark [25] stands for this setting: cohort C: entecavir 0.5 mg/day, n=8.

Values joined by “and” are separate entries in the source; they are usually repeats but may differ in a detail not shown here. Equal values may be shown once.

Regarding `O=C(NCc1cnc(C(F)(F)F)s1)c1ccc2c(c1)NC(=O)c1ccccc1S2(=O)=O` [ABI-H0731], the “ALT flare in phase I clinical study” value in series [1] was “without ALT flare”.
On to `CCOC(=O)C1=C(CN2CCOCC2)NC(c2nccs2)=NC1c1ccc(F)cc1Br` (centres unmarked) [GLS4], for which the “decline in HBV DNA levels in patients with poor response” value with HBV [2] (cohort A (GLS4 120 mg/day + ritonavir 100 mg/day), patients 003, 005 and 022) was under 0.5 log10 IU/mL. In addition, the “mean decline in HBV DNA after 28 days of treatment” value with HBV [2] (setting [15]) is recorded as −1.42 log10 IU/mL; with HBV [2] (setting [16]), −2.13 log10 IU/mL. In addition, the “mean change in HBV DNA following GLS4 treatment” value with HBV [2] (cohorts A and B (GLS4 120 or 240 mg/day + ritonavir 100 mg/day, 28 days)) is −1.42 to −2.13 log10 IU/mL. Further, the “mean decline in HBsAg after 28 days of treatment” value in the series with HBV [3] (setting [15]) was −0.06 log10 IU/mL; with HBV [3] (setting [16]), −0.14 log10 IU/mL. Besides, the figures for the “mean decline in HBeAg after 28 days of treatment” value with HBV [4] (setting [15]) and with HBV [4] (setting [16]) were −0.25 log10 IU/mL and −0.30 log10 IU/mL, respectively. Further, the results for the “mean decline in pgRNA after 28 days of treatment” value in the series with HBV [5] (setting [15]) and with HBV [5] (setting [16]) were −0.75 log10 copies/mL and −1.78 log10 copies/mL, respectively. For the same molecule, the “mean decline in HBcrAg after 28 days of treatment” value with HBV [6] (setting [15]) is −0.23 log10 U/mL; in the series on HBV [6] (setting [16]), −0.5 log10 U/mL and −0.50 log10 U/mL. For the same molecule, the “Median Tmax (minimum–maximum)” value is given as 3 (1.5,4) hours in series [7] (setting [17]); 3 (0.5, 4) hours in [7] (setting [18]); 3 (0.5, 4) hours in series [7] (setting [19]); 3.5 (2, 4) hours in series [7] (setting [20]); 3 (2, 4) hours in series [7] (setting [21]); 3 (2, 4) hours in series [7] (setting [22]). Also, the “AUC0–24” value in series [7] (setting [17]) is on record as 4268 (27) ng × hours/mL; in series [7] (setting [18]) it was 7871 (56) ng × hours/mL; in series [7] (setting [19]), 7871 (56) ng × hours/mL; in series [7] (setting [20]), 8055 (34) ng × hours/mL. Also, the “AUC0–t” value in [7] (setting [17]) is 4268 (27) ng × hours/mL; in series [7] (setting [18]) it was 7871(56) ng × hours/mL; in series [7] (setting [20]) it was 8055 (34) ng × hours/mL. The Cmax in [7] (setting [17]) is reported as 885 (27) ng/mL; in series [7] (setting [18]), 865 (66) ng/mL; in series [7] (setting [19]), 865 (66) ng/mL; in series [7] (setting [20]), 1447 (39) ng/mL; in series [7] (setting [21]), 1461 (24) ng/mL; in series [7] (setting [22]) it was 1461 (24) ng/mL. The Ctrough in series [7] (setting [18]) was 218(59) ng/mL; in series [7] (setting [21]), 205(63) ng/mL. The t1/2 is 32.1(11.7) hours in [7] (setting [18]); 64.2 (14.8) hours in [7] (setting [19]); 10.6 (3.3) hours in [7] (setting [20]); 16.3(7.6) hours in [7] (setting [21]); 67.3 (24.2) hours in series [7] (setting [22]). Further, the “Df (degree of fluctuation)” value was 204 (36) % in [7] (setting [19]) and 265 (33) % in series [7] (setting [22]). For the same molecule, the “accumulation rate with AUC0–24 (day 28 vs day 1)” value in [7] (cohorts A and B) is 1.6–2.0. In series [7] (cohorts A and B), the “accumulation rate with Cmax (day 28 vs day 1)” value is recorded as 1.1–1.2. Also, in series [7] (cohorts A and B, day 28 vs day 1, AUC0–24 or Cmax), the accumulation rate is listed as 1.1–2.0. The “time to maximum GLS4 concentration (Tmax)” value in series [7] (cohorts A and B, first and last dose (days 1 and 28), with ritonavir) was 3–3.5 hours and ~ 3 hours. In [7] (cohorts A and B, steady state, with ritonavir 100 mg/day), the “mean trough concentration (Ctrough) of GLS4” value is 205 to 218 ng/mL. In series [7] (patients, cohorts A and B), the “t1/2 of GLS4 when combined with ritonavir” value lay in the range of 64.2 to 67.3 h. Moreover, the “tolerability in patients with chronic HBV infection” value in [8] (120 mg GLS4 (+ ritonavir 100 mg), 28 days) was “tolerated”. Besides, the results for the “frequency of grade 3–4 adverse reactions” value in [8] (setting [23]) and in series [8] (setting [24]) were 2 and 7, respectively. For the same molecule, the entries for the “patients who experienced an adverse reaction” value in [8] (setting [23]) and in [8] (setting [24]) were 5 and 6, respectively. Further, the “patients withdrawn due to ALT flare” value in series [8] (setting [23]) was 1 and 1/8; in [8] (setting [24]), 2 and 2/8. Moreover, the “subjects with alanine aminotransferase flare” value in [8] (setting [23]) was 2 and 2/8; in series [8] (setting [24]), 3 and 3/8. The “presence of SAEs” value in series [8] (setting [24]) was determined as 1. The “mean steady-state Cmin” value in series [9] (GLS4 120 mg/day + ritonavir 100 mg/day for 9 days) worked out at 187.9 ng/mL; in series [9] (GLS4 240 mg/day + ritonavir 100 mg/day for 9 days) it was 300.7 ng/mL. Also, the “t1/2 of GLS4 monotherapy” value in series [9] (without ritonavir, data not shown) fell in the range of 1.09 to 15.8 h. Besides, the “tolerability of GLS4 (120 or 240 mg) in combination with 100 mg ritonavir” value in series [10] was “tolerated”. In the series with HBV [11] (cohort A: patient 013, cohort B: patient 020), the “efficacy in patients resistant to lamivudine or adefovir dipivoxil treatment” value is “effective”. In addition, the “GLS4 resistance among patients” value in the series on HBV [11] (cohorts A and B, 28 days of treatment) is “not observed”. Further, the “90% effective concentration (EC90)” value with HBV in HepG2.2.15 cell (HepG2.2.15 cell, after correction with Human plasma protein binding) was 0.0558 µg/mL. For the same molecule, in the series with HBV in HepG2.2.15 cell (in vitro), the “anti-HBV activity in vitro compared with Bay 41–4109” value was “better anti-HBV activity in vitro than Bay 41–4109”. The tolerability result in [12] is given as “well tolerated”.
As to `O=C(Nc1cc(F)c(F)c(F)c1)c1ccc(F)c(S(=O)(=O)N2CCC(O)CC2)c1` [NVR 3–778], in the series on HBV [13], the “mean change in HBV DNA” value is on record as −1.43 log10 IU/mL, the “mean decline in HBeAg” value is reported as −0.09 log10 IU/mL and the “mean decline in HBsAg” value is −0.02 log10 IU/mL.
Consider `C=C1[C@H](CO)[C@@H](O)C[C@@H]1n1cnc2c(=O)[nH]c(N)nc21` [entecavir, reference compound], for which, in the series on HBV [2] (cohort C: entecavir 0.5 mg/day), the “mean decline in HBV DNA after 28 days of treatment” value was −3.5 log10 IU/mL. Also, the “mean decline in HBsAg after 28 days of treatment” value in the series on HBV [3] (cohort C: entecavir 0.5 mg/day) was −0.33 log10 IU/mL. Moreover, the “mean decline in pgRNA after 28 days of treatment” value in the series with HBV [5] (cohort C: entecavir 0.5 mg/day) was −0.96 log10 copies/mL. For the same molecule, the “mean decline in HBcrAg after 28 days of treatment” value in the series with HBV [6] (cohort C: entecavir 0.5 mg/day) is −0.44 log10 U/mL. Besides, in series [8] (setting [25]), the “patients who experienced an adverse reaction” value is given as 7, the “patients withdrawn due to ALT flare” value is listed as 1 and the “subjects with alanine aminotransferase flare” value is on record as 3.
As to `N[C@@H](CCC(=O)N[C@@H](CS)C(=O)NCC(=O)O)C(=O)O` [glutathione, reference compound], the “effect of silibinin and glutathione treatment on ALT flares” value in series [8] was “effective in reducing ALT flares”. For the same molecule, the antiviral effects result in the series with HBV [14] is “no antiviral effects”.
`COc1cc(C2Oc3cc([C@H]4Oc5cc(O)cc(O)c5C(=O)[C@@H]4O)ccc3OC2CO)ccc1O` (some centres unmarked) [silibinin, reference compound]: the “effect of silibinin and glutathione treatment on ALT flares” value in [8] is given as “effective in reducing ALT flares”. Also, the antiviral effects entry in the series on HBV [14] is on record as “no antiviral effects”.
